Assay results as given in US7585895B2, “Therapeutic substituted cyclopentanes” (Allergan, Inc., priority 2005, dated 2009).

Columns and labels:
Format in all cases: cell-based
[1] = molecular target: T1, hEP2/Gqs5 (Homo sapiens, UniProt P43116); experiment: FLIPR calcium signal, EP2; settings: HEK-293(EBNA), value outside parentheses, read-out: Ca2+ Signal-EC50 (nM) EP2
T1 construct: expressed in transfected cells
Description: (§1) HEK-293(EBNA) cells, stably expressing one type or subtype of recombinant human prostaglandin receptors (prostaglandin receptors expressed: hDP/Gqs5; hEP1; hEP2/Gqs5; hEP3A/Gqi5; hEP4/Gqs5; hFP; hIP; hTP), were cultured in 100 mm culture dishes in high-glucose DMEM medium containing 10% fetal bovine serum, 2 mM 1-glutamine, 250 μg/ml geneticin (G418) and 200 μg/ml hygromycin B as selection markers, and 100 units/ml penicillin G, 100 μg/ml streptomycin and 0.25 μg/ml amphotericin B.
(§2) Cells were seeded at a density of 5×10^4 cells per well in Biocoat® Poly-D-lysine-coated black-wall, clear-bottom 96-well plates (Becton-Dickinson) and allowed to attach overnight in an incubator at 37° C. Cells were then washed two times with HBSS-HEPES buffer (Hanks Balanced Salt Solution without bicarbonate and phenol red, 20 mM HEPES, pH 7.4) using a Denley Cellwash plate washer (Labsystems). After 45 minutes of dye-loading in the dark, using the calcium-sensitive dye Fluo-4 AM at a final concentration of 2 μM, plates were washed four times with HBSS-HEPES buffer to remove excess dye leaving 100 μl in each well. Plates were re-equilibrated to 37° C. for a few minutes.
(§3) Cells were excited with an Argon laser at 488 nm, and emission was measured through a 510-570 nm bandwidth emission filter (FLIPR™, Molecular Devices, Sunnyvale, Calif.). Drug solution was added in a 50 μl volume to each well to give the desired final concentration. The peak increase in fluorescence intensity was recorded for each well. On each plate, four wells each served as negative (HBSS-HEPES buffer) and positive controls (standard agonists: BW245C (hDP); PGE2 (HEP1; hEP2/Gqs5; hEP3A/Gqi5; hEP4/Gqs5); PGF2α (hFP); carbacyclin (hIP); U-46619 (hTP), depending on receptor). The peak fluorescence change in each drug-containing well was then expressed relative to the controls.
(§4) Compounds were tested in a high-throughput (HTS) or concentration-response (CoRe) format. In the HTS format, forty-four compounds per plate were examined in duplicates at a concentration of 10^−5 M. To generate concentration-response curves, four compounds per plate were tested in duplicates in a concentration range between 10^−5 and 10^−11 M. The duplicate values were averaged. In either, HTS or CoRe format each compound was tested on at least 3 separate plates using cells from different passages to give an n≧3.

[2] = molecular target: T2, hTP (Homo sapiens, UniProt P21731); experiment: FLIPR calcium signal, TP; settings: HEK-293(EBNA)
T2 construct: expressed in transfected cells
T2 sequence (P21731 1-343): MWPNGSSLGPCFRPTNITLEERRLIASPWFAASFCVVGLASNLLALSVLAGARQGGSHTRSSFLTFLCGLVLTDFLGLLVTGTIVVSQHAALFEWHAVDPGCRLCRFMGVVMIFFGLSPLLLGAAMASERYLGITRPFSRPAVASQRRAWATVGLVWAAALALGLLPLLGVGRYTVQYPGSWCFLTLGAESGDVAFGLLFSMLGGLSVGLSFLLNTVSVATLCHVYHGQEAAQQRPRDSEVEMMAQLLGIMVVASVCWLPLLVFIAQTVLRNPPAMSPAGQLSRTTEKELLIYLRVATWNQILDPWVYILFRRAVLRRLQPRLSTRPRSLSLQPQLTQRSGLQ
Description: as §1, §2, §3, §4

[3] = molecular target: T3, hDP/Gqs5 (Homo sapiens, UniProt Q13258); experiment: FLIPR calcium signal, DP; settings: HEK-293(EBNA)
T3 construct: expressed in transfected cells
T3 sequence (Q13258 1-359): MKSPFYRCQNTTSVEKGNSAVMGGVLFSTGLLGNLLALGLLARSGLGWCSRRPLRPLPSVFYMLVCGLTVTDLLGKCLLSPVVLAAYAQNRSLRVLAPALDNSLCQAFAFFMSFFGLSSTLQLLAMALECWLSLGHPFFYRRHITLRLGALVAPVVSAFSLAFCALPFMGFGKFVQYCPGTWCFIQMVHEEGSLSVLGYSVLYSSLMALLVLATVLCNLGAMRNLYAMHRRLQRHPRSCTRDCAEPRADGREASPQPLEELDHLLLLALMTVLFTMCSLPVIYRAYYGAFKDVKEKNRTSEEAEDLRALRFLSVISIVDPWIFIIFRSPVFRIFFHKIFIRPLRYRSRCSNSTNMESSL
Description: as §1, §2, §3, §4

T1 sequence (P43116 whole entry): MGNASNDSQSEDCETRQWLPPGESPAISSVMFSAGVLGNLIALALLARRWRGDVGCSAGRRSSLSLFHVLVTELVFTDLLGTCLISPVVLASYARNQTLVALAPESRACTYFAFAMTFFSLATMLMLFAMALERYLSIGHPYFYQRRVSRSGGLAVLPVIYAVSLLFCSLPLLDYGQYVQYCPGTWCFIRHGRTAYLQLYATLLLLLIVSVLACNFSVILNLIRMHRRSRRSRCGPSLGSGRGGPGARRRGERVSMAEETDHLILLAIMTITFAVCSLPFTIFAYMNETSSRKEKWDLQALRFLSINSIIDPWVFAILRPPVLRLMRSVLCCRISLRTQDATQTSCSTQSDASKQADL

| SMILES | EC50 [1] [nM] | Ca2+ Signal-EC50 (nM) TP [2] | Ca2+ Signal-EC50 (nM) DP [3] | EC50 ([2]; read-out: Ca2+ Signal-EC50 (nM) TP) [nM] |
| --- | --- | --- | --- | --- |
| CCCCCC(O)c1ccc([C@@H]2[C@@H](CCCc3ccc(C(=O)O)s3)[C@H](Cl)C[C@H]2O)cc1 (stereo partly drawn) [Entry 2, 5-(3-{(1R,2S,3R,5R)-5-Chloro-3-hydroxy-2-[4-(1-hydroxy-hexyl)-phenyl]-cyclopentyl}-propyl)-thiophene-2-carboxylic acid] | 4 | not active | not active | – |
| CCCCCC(O)c1ccc([C@@H]2[C@@H](Cc3cccc(CCC(=O)O)c3)[C@H](Cl)C[C@H]2O)cc1 (stereo partly drawn) [Entry 3, 3-(3-{(1R,2S,3R,5R)-5-Chloro-3-hydroxy-2-[4-(1-hydroxy-hexyl)-phenyl]-cyclopentylmethyl}-phenyl)-propionic acid] | 158 | not active | not active | – |
| CCCC1(C(O)c2cccc([C@@H]3[C@@H](Cc4cccc(CCC(=O)O)c4)[C@H](Cl)C[C@H]3O)c2)CCC1 (stereo partly drawn) [Entry 4, 3-[3-((1R,2S,3R,5R)-5-Chloro-3-hydroxy-2-{3-[hydroxy-(1-propyl-cyclobutyl)-methyl]-phenyl}-cyclopentylmethyl)-phenyl]-propionic acid] | 4110 | not active | not active | – |
| CCCCCC(O)c1ccc([C@@H]2[C@@H](CCCc3ncc(C(=O)O)s3)[C@H](Cl)C[C@H]2O)cc1 (stereo partly drawn) [Entry 5, 2-(3-{(1R,2S,3R,5R)-5-Chloro-3-hydroxy-2-[4-(1-hydroxy-hexyl)-phenyl]-cyclopentyl}-propyl)-thiazole-5-carboxylic acid] | 619 | not active | not active | – |
| CCCCCC(O)c1ccc([C@@H]2[C@@H](CCCCCCC(=O)O)[C@H](Cl)C[C@H]2O)cc1 (stereo partly drawn) [Entry 14, 7-{(1R,2S,3R,5R)-5-Chloro-3-hydroxy-2-[4-(1-hydroxy-hexyl)-phenyl]-cyclopentyl}-heptanoic acid] | 28 | not active | not active | – |
| O=C(O)CCC/C=C\C[C@@H]1[C@@H](c2ccc(C(O)CCC3CCCCC3)cc2)[C@H](O)C[C@H]1Cl (stereo partly drawn) [Entry 15, (Z)-7-{(1R,2S,3R,5R)-5-Chloro-2-[4-(3-cyclohexyl-1-hydroxy-propyl)-phenyl]-3-hydroxy-cyclopentyl}-hept-5-enoic acid] | 495 | not active | not active | – |
| O=C(O)CCCCCC[C@@H]1[C@@H](c2ccc(C(O)CCC3CCCCC3)cc2)[C@H](O)C[C@H]1Cl (stereo partly drawn) [Entry 16, 7-{(1R,2S,3R,5R)-5-Chloro-2-[4-(3-cyclohexyl-1-hydroxy-propyl)-phenyl]-3-hydroxy-cyclopentyl}-heptanoic acid] | 2330 | not active | not active | – |
| O=C(O)CCCCCC[C@@H]1[C@@H](c2ccc(C(O)CC3CCCCC3)cc2)[C@H](O)C[C@H]1Cl (stereo partly drawn) [Entry 18, 7-{(1R,2S,3R,5R)-5-Chloro-2-[4-(2-cyclohexyl-1-hydroxy-ethyl)-phenyl]-3-hydroxy-cyclopentyl}-heptanoic acid] | 2250 | not active | not active | – |
| O=C(O)CCCCCC[C@@H]1[C@@H](c2ccc(C(O)Cc3ccccc3)cc2)[C@H](O)C[C@H]1Cl (stereo partly drawn) [Entry 22, 7-{(1 R,2S,3R,5R)-5-Chloro-3-hydroxy-2-[4-(1-hydroxy-2-phenyl-ethyl)-phenyl]-cyclopentyl}-heptanoic acid] | 51 | not active | not active | – |
| O=C(O)CCC/C=C\C[C@@H]1[C@@H](c2ccc(C(O)CCc3ccccc3)cc2)[C@H](O)C[C@H]1Cl (stereo partly drawn) [Entry 23, (Z)-7-{(1R,2S,3R,5R)-5-Chloro-3-hydroxy-2-[4-(1-hydroxy-3-phenyl-propyl)-phenyl]-cyclopentyl}-hept-5-enoic acid] | 548 | not active | not active | – |
| O=C(O)CCCCCC[C@@H]1[C@@H](c2ccc(C(O)CCc3ccccc3)cc2)[C@H](O)C[C@H]1Cl (stereo partly drawn) [Entry 24, 7-{(1R,2S,3R,5R)-5-Chloro-3-hydroxy-2-[4-(1-hydroxy-3-phenyl-propyl)-phenyl]-cyclopentyl}-heptanoic acid] | 735 | not active | not active | – |

Continued, values first:

| EC50 [1] [nM] | Ca2+ Signal-EC50 (nM) TP [2] | Ca2+ Signal-EC50 (nM) DP [3] | EC50 ([2]; read-out: Ca2+ Signal-EC50 (nM) TP) [nM] | SMILES |
| --- | --- | --- | --- | --- |
| 11 | not active | not active | – | CCCCCC(O)c1ccc([C@@H]2[C@@H](C/C=C\CCCC(=O)O)[C@H](Cl)C[C@H]2O)cc1 (single isomer, unassigned) [Entry 13] |
| 242 | not active | not active | – | CCCCCC(O)c1ccc([C@@H]2[C@@H](C/C=C\CCCC(=O)O)[C@@H](Cl)C[C@H]2O)cc1 (stereo partly drawn) [Entry 9, (Z)-7-{(1R,2S,3R,5S)-5-Chloro-3-hydroxy-2-[4-(1-hydroxy-hexyl)-phenyl]-cyclopentyl}-hept-5-enoic acid] |
| 58 | not active | not active | – | CCCCCCC(O)c1ccc([C@@H]2[C@@H](C/C=C\CCCC(=O)O)[C@H](Cl)C[C@H]2O)cc1 (stereo partly drawn) [Entry 25, (Z)-7-{(1R,2S,3R,5R)-5-Chloro-3-hydroxy-2-[4-(1-hydroxy-heptyl)-phenyl]-cyclopentyl}-hept-5-enoic acid] |
| 154 | not active | not active | – | CCCC(O)c1ccc([C@@H]2[C@@H](C/C=C\CCCC(=O)O)[C@H](Cl)C[C@H]2O)cc1 (stereo partly drawn) [Entry 26, (Z)-7-{(1R,2S,3R,5R)-5-Chloro-3-hydroxy-2-[4-(1-hydroxy-butyl)-phenyl]-cyclopentyl}-hept-5-enoic acid] |
| 119 | not active | not active | – | CCCCCC(O)c1cccc([C@@H]2[C@@H](C/C=C\CCCC(=O)O)[C@H](Cl)C[C@H]2O)c1 (stereo partly drawn) [Entry 29, (Z)-7-{(1R,2S,3R,5R)-5-Chloro-3-hydroxy-2-[3-(1-hydroxy-hexyl)-phenyl]-cyclopentyl}-hept-5-enoic acid] |
| 68 | – | not active | 3750 | CCCCC(O)c1cccc([C@@H]2[C@@H](C/C=C\CCCC(=O)O)[C@H](Cl)C[C@H]2O)c1 (stereo partly drawn) [Entry 30, (Z)-7-{(1R,2S,3R,5R)-5-Chloro-3-hydroxy-2-[3-(1-hydroxy-pentyl)-phenyl]-cyclopentyl}-hept-5-enoic acid] |
